This is an account of results in US20120329860A1, “Uses of Beta-Nicotinamide Adenine Dinucleotide” (MEDICAL COLLEGE OF GEORGIA INSTITUTE, INC, priority 2010, published 2012).

The target of one data set is T1, P2Y11 receptor (Homo sapiens, UniProt Q96G91).
T1 construct: To deplete the mRNA content of endogenous P2Y1, P2Y11 or EPAC1; endogenous in cells; host or cells: HPAEC (human pulmonary artery endothelial cells)
T1 sequence (Q96G91 1-374): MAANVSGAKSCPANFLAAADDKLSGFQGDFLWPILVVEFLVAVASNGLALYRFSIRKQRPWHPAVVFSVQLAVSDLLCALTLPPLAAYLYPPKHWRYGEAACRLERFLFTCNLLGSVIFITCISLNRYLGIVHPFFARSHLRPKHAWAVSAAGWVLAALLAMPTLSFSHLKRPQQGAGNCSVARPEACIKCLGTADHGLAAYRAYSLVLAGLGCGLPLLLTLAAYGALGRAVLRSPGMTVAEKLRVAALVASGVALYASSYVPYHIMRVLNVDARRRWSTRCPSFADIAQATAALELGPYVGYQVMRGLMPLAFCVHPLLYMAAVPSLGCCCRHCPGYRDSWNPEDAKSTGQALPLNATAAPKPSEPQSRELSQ
Briefly: P2Y11 receptor antagonist study (TER, HPAEC). Format: cell-based. As to conditions: 1 mM NF157 pretreatment 30 min, then b-NAD. The protocol: (§1) The barrier properties of endothelial cells monolayers were characterized using a highly sensitive electrical cell-substrate impedance sensing (ECIS) instrument to measure transendothelial electrical resistance (TER) as described (Birukova et al., 2004a. Microvasc Res 67(1):64-77; Kolosova et al., 2005, Circ Res 97(2):115-124). The TER data was normalized to the initial voltage.
(§2) HPAEC were pretreated with receptor-specific antagonists, MRS2279 or NF157, for 30 min, and then challenged with […] b-NAD. TER was registered throughout to examine the barrier enhancement induced by b-NAD in the presence or absence of the antagonists.

The test system of the next data set is HPAEC monolayers. Nature of the data set: Transendothelial electrical resistance (TER) by ECIS in HPAEC monolayers. As to conditions: for TER of HPAEC monolayers after cytoskeleton-disrupting agent: agent alone, pretreatment 30 min. It is filed as cell-based, human. The protocol:
Human pulmonary artery endothial cells (HPAEC) and EBM-2 complete medium were purchased from Lonza (Allendale, N.J.). HPAEC were cultured according to the manufacturer's protocol and utilized at early (3-6) passages.
as §1

The target in a further data set is T2, P2Y1 receptor (Homo sapiens, UniProt P47900).
T2 construct: To deplete the mRNA content of endogenous P2Y1, P2Y11 or EPAC1; endogenous in cells; host or cells: HPAEC (human pulmonary artery endothelial cells)
T2 sequence (P47900 whole entry): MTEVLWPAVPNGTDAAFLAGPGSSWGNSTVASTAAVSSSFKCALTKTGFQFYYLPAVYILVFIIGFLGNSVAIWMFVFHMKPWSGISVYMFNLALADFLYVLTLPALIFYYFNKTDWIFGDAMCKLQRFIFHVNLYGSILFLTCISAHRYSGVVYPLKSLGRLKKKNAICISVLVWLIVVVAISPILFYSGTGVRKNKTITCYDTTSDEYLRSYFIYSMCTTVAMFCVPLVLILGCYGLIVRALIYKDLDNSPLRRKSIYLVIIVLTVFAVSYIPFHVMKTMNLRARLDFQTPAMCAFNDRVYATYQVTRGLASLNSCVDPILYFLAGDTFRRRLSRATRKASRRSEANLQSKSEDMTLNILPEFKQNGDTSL
Briefly: P2Y1 receptor antagonist study (TER, HPAEC). Format: cell-based. Also noted: dose or concentration left out as unconfirmed. As to conditions: MRS2279 pretreatment 30 min, then b-NAD. The protocol: as §1, §2

The next data set relates to LPS-induced ALI in mice. Nature of the data set: Evans Blue Dye-albumin (EBD) lung permeability. As to conditions: LPS alone treated mice; vehicle 4.57. It is filed as in vivo. The protocol: Mice were anesthetized with ketamine (150 mg/kg) and acetylpromazine (15 mg/kg) intraperitoneally (i.p.) before the exposure of the trachea via neck incision and intubation with 20-guage catheter and the right internal jugular vein was exposed via right chest incision for PBS or b-NAD installation. The mice were randomly divided into groups. LPS or sterile saline was instilled intratracheally (i.t.) via a 20-gauge catheter. Simultaneously, mice received either b-NAD (5.4 mg/kg, equivalent to final calculated plasma concentration […] or PBS in the control group intravenously (i.v.) through the internal jugular vein (IJ). The animals were allowed to recover for 18 hr. EBD was given through the IJ 2 hr prior to termination of the experiment. At termination, bronchoalveolar lavage (BAL) was collected. BAL was 1ml of 10% HBSS through the endotracheal catheter immediately on sacrifice with aspiration. BAL was immediately centrifuged and processed. After the BAL, ethylenediaminetetraacetic acid (EDTA) was used to flush the lungs of blood via the right heart ventricle and the lungs were then harvested. BAL and lungs were collected and stored at −70° C. for evaluation of lung injury.
Measurement of EBD concentration in the lungs was performed by injection of EBD (20 mg/kg) into the right internal jugular vein 2 hr before the termination of the experiment to assess the vascular leak. Lungs free of blood were weighed and snap frozen in liquid nitrogen. The left lung was weighed and homogenized, then incubated with two volumes of formamide (18 hr, 60° C.) and centrifuged (5000 g, 30 min, 20° C.). The extravasated EBD concentration (mg/g, lung) in the lung homogenate was calculated against a standard curve. In a separate experiment the EBD was injected into the right internal jugular vein as described above at 2 hrs prior to termination of the experiment and the left lung gross anatomy view was photographed with a Leica NCL150 Camera.

Data set [1] relates to LPS-induced mortality in mice. Nature of the data set: LPS-induced mortality / survival. It is filed as in vivo. To be noted: LPS alone, within four days. The protocol:
Mice were injected with β-NAD (100 mg/kg, i.p) or vehicle (saline, i.p) 10 min after LPS (20 mg/kg, i.p) challenge. As a treatment strategy, β-NAD was given twice a day (i.p) for 4 days. […]

Another data set has as its system PKA. Nature of the data set: PKA inhibitor test in ECIS/TER assay (HPAEC). It is filed as cell-based, human. As to conditions: H-89 pretreatment 30 min, then 50 μM β-NAD.
Source text: as §1
To elucidate the signaling pathways involved in β-NAD-induced HPAEC TER increase, the cAMP-activated protein kinase A (PKA) and the nucleotide exchange protein directly activated by cAMP (EPAC) pathways were examined. Since activation of P2Y11 receptors may lead to the Gas-mediated pathway including direct stimulation of adenylate cyclase, elevation of cAMP levels and cAMP-dependent activation of PKA, a simple inhibitory test was performed to confirm an activation of PKA and its participation in β-NAD-induced HPAEC barrier enhancement. For this test, H-89, an inhibitor of PKA activity, was used in ECIS experiments. HPAEC were pre-treated with H-89 for 30 min and then challenged with β-NAD and the effect of β-NAD-mediated barrier enhancement was determined using TER measurement.

As to `O=C(Nc1cccc(C(=O)Nc2cc(C(=O)Nc3ccc(S(=O)(=O)O)c4cc(S(=O)(=O)O)cc(S(=O)(=O)O)c34)ccc2F)c1)Nc1cccc(C(=O)Nc2cc(C(=O)Nc3ccc(S(=O)(=O)O)c4cc(S(=O)(=O)O)cc(S(=O)(=O)O)c34)ccc2F)c1` [NF157], the “effect of P2Y11 antagonist on β-NAD-induced TER increase” value on P2Y11 receptor is on record as “attenuated the β-NAD-induced TER increase more significantly”. As to pneumolysin [PLY, reference compound], the “decrease in TER from the baseline” value in the data set on HPAEC monolayers (PLY alone (125 ng/ml)) was roughly 80%. As to `C=C1[C@@H](C)[C@H]2[C@H](Cc3ccccc3)NC(=O)[C@]23OC(=O)/C=C/[C@H](O)CCC[C@@H](C)C/C=C/[C@H]3[C@@H]1O` [cytochalasin B, reference compound], the “TER of HPAEC monolayers after cytoskeleton-disrupting agent” value in the data set on HPAEC monolayers is given as “produced a prompt attenuation in TER”.

Consider `CNc1nc(Cl)nc2c1ncn2[C@H]1C[C@@H](OP(=O)(O)O)[C@]2(COP(=O)(O)O)C[C@H]12` [MRS2279], for which the “effect of P2Y1 antagonist on β-NAD-induced TER increase” value on P2Y1 receptor is given as “attenuated the β-NAD-induced TER increase”. As for `COC(=O)Nc1nc2ccc(C(=O)c3cccs3)cc2[nH]1` [nocodazole, reference compound], the “TER of HPAEC monolayers after cytoskeleton-disrupting agent” value in the data set with HPAEC monolayers is “compromises endothelial cell barrier integrity”. Broadly, the mortality is the share of the test organisms that died. With “lipopolysaccharide [LPS, reference compound]”, in the data set with HPAEC monolayers (LPS (100 ng/ml) alone), the “decrease in TER from the baseline” value was roughly 60%. The “EBD-albumin in lung (average)” value in the data set with LPS-induced ALI in mice worked out at 16.81 µg/g. Moreover, in data set [1], the mortality was 100%. For `O=S(=O)(NCCNC/C=C/c1ccc(Br)cc1)c1cccc2cnccc12` [H-89], in the data set with PKA, the “effect of PKA inhibitor on β-NAD-induced TER increase” value was “attenuated the β-NAD-induced HPAEC TER increase”.
